Legend:
[1] = test system: barnyardgrass; test: Test A pre-/postemergence greenhouse test; assay type: in vivo, Echinochloa crus-galli; conditions: for Plant response rating, Barnyardgrass: 0 to 100 scale where 0 is no effect and 100 is complete control; for Barnyardgrass plant response rating: 0 to 100 scale
Procedure, shortened: (§1)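 Pots of loam–sand soil sown with the test species are sprayed preemergence on the soil surface; emerged seedlings (1–2 leaves, 2–10 cm) are sprayed postemergence at the same time. The vehicle is a non-phytotoxic solvent mixture with surfactant. Injury is scored visually after ~10 d in greenhouse.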

[2] = test system: crabgrass; test: Test A pre-/postemergence greenhouse test; assay type: in vivo, Digitaria sanguinalis; conditions: for Plant response rating, Crabgrass, Large: 0 to 100 scale where 0 is no effect and 100 is complete control; for Crabgrass, Large plant response rating: 0 to 100 scale
Procedure, shortened: as §1

[3] = test system: giant foxtail; test: Test A pre-/postemergence greenhouse test; assay type: in vivo, Setaria faberi; conditions: for Plant response rating, Foxtail, Giant: 0 to 100 scale where 0 is no effect and 100 is complete control; for Foxtail, Giant plant response rating: 0 to 100 scale
Procedure, shortened: as §1

[4] = test system: morningglory; test: Test A pre-/postemergence greenhouse test; assay type: in vivo, Ipomoea spp.; conditions: for Plant response rating, Morningglory: 0 to 100 scale where 0 is no effect and 100 is complete control; for Morningglory plant response rating: 0 to 100 scale
Procedure, shortened: as §1

[5] = test system: redroot pigweed; test: Test A pre-/postemergence greenhouse test; assay type: in vivo, Amaranthus retroflexus; conditions: for Plant response rating, Pigweed: 0 to 100 scale where 0 is no effect and 100 is complete control; for Pigweed plant response rating: 0 to 100 scale
Procedure, shortened: as §1

[6] = test system: velvetleaf; test: Test A pre-/postemergence greenhouse test; assay type: in vivo, Abutilon theophrasti; conditions: for Plant response rating, Velvetleaf: 0 to 100 scale where 0 is no effect and 100 is complete control; for Velvetleaf plant response rating: 0 to 100 scale
Procedure, shortened: as §1

[7] = test system: wheat; test: Test A pre-/postemergence greenhouse test; assay type: in vivo, Triticum aestivum; conditions: for Plant response rating, Wheat: 0 to 100 scale where 0 is no effect and 100 is complete control; for Wheat plant response rating: 0 to 100 scale
Procedure, shortened: as §1

[8] = test system: corn; test: Test A pre-/postemergence greenhouse test; assay type: in vivo, Zea mays; conditions: for Plant response rating, Corn: 0 to 100 scale where 0 is no effect and 100 is complete control; for Corn plant response rating: 0 to 100 scale
Procedure, shortened: as §1

[9] = test system: rice; test: Test C flooded paddy test; assay type: in vivo, Oryza sativa; conditions: Flood
Procedure, shortened: (§2)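 Compound was added to standing water 3 cm above soil, flood maintained, and plants held in a greenhouse before visual scoring against controls at 13 to 15 days.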

[10] = test system: umbrella sedge; test: Test C flooded paddy test; assay type: in vivo, Cyperus difformis; conditions: Flood
Procedure, shortened: as §2

[11] = test system: duck salad; test: Test C flooded paddy test; assay type: in vivo, Heteranthera limosa; conditions: Flood
Procedure, shortened: as §2

[12] = test system: barnyardgrass; test: Test C flooded paddy test; assay type: in vivo, Echinochloa crus-galli; conditions: Flood
Procedure, shortened: as §2

[13] = Postemergence, 500 g ai/ha, 0 is no effect, 100 is complete control
[14] = Preemergence, 125 g ai/ha, 0 no effect, 100 complete control
[15] = 62 g ai/ha, scale 0 to 100, 0 no effect, 100 complete control, 13 to 15 days
[16] = 250 g ai/ha, scale 0 to 100, 0 no effect, 100 complete control, 13 to 15 days
[17] = 62 g ai/ha, scale 0 to 100 (0 no effect, 100 complete control)
[18] = Preemergence, 500 g ai/ha, 0 no effect, 100 complete control

SMILES | Plant response rating, Barnyardgrass ([1]; Postemergence, 125 g ai/ha) | Barnyardgrass plant response rating [1, 13] | Barnyardgrass plant response rating [1, 14] | Plant response rating, Barnyardgrass ([1]; Preemergence, 500 g ai/ha) | Plant response rating, Crabgrass, Large ([2]; Postemergence, 125 g ai/ha) | Crabgrass, Large plant response rating [2, 13] | Crabgrass, Large plant response rating [2, 14] | Plant response rating, Crabgrass, Large ([2]; Preemergence, 500 g ai/ha) | Plant response rating, Foxtail, Giant ([3]; Postemergence, 125 g ai/ha) | Foxtail, Giant plant response rating [3, 13] | Foxtail, Giant plant response rating [3, 14] | Plant response rating, Foxtail, Giant ([3]; Preemergence, 500 g ai/ha) | Plant response rating, Morningglory ([4]; Postemergence, 125 g ai/ha) | Morningglory plant response rating [4, 13] | Morningglory plant response rating [4, 14] | Plant response rating, Morningglory ([4]; Preemergence, 500 g ai/ha) | Plant response rating, Pigweed ([5]; Postemergence, 125 g ai/ha) | Pigweed plant response rating [5, 13] | Pigweed plant response rating [5, 14] | Plant response rating, Pigweed ([5]; Preemergence, 500 g ai/ha) | also measured
O=S(=O)(Cc1c(C(F)(F)F)nn(CC(F)(F)F)c1Cl)c1cccc[n+]1[O-] [Compound 44] | 70 | 80 | 70 | 90 | 70 | 80 | 60 | 100 | 70 | 80 | 90 | 100 | 10 | 40 | 0 | 60 | 0 | 10 | 0 | 100 | Plant response rating, Velvetleaf ([6]; Postemergence, 125 g ai/ha): 0; Velvetleaf plant response rating [6, 13]: 30; Velvetleaf plant response rating [6, 14]: 0; Plant response rating, Velvetleaf ([6]; Preemergence, 500 g ai/ha): 30; Plant response rating, Wheat ([7]; Postemergence, 125 g ai/ha): 0; Wheat plant response rating [7, 13]: 0; Wheat plant response rating [7, 14]: 0; Plant response rating, Wheat ([7]; Preemergence, 500 g ai/ha): 20; Plant response rating, Corn ([8]; Postemergence, 125 g ai/ha): 0; Corn plant response rating [8, 13]: 0; Corn plant response rating [8, 14]: 0; Plant response rating, Corn ([8]; Preemergence, 500 g ai/ha): 0; Plant response rating, Rice [9, 15]: 0; Plant response rating, Rice [9, 16]: 30; Plant response rating, Sedge, Umbrella [10, 16]: 50; Plant response rating, Ducksalad [11, 15]: 0; Plant response rating, Ducksalad [11, 16]: 40; Plant response rating, Barnyardgrass [12, 15]: 0; Plant response rating, Barnyardgrass [12, 16]: 0
Cn1nc(C(F)(F)F)c(CS(=O)(=O)c2cccc[n+]2[O-])c1OCC(F)(F)C(F)(F)F [Compound 83] | 50 | 70 | 80 | 100 | 30 | 80 | 50 | 80 | 70 | 80 | 80 | 100 | 10 | 30 | 0 | 70 | 10 | 20 | 10 | 100 | Plant response rating, Velvetleaf ([6]; Postemergence, 125 g ai/ha): 0; Velvetleaf plant response rating [6, 13]: 40; Velvetleaf plant response rating [6, 14]: 0; Plant response rating, Velvetleaf ([6]; Preemergence, 500 g ai/ha): 60; Plant response rating, Wheat ([7]; Postemergence, 125 g ai/ha): 0; Wheat plant response rating [7, 13]: 10; Wheat plant response rating [7, 14]: 10; Plant response rating, Wheat ([7]; Preemergence, 500 g ai/ha): 60; Plant response rating, Corn ([8]; Postemergence, 125 g ai/ha): 0; Corn plant response rating [8, 13]: 0; Corn plant response rating [8, 14]: 0; Plant response rating, Corn ([8]; Preemergence, 500 g ai/ha): 40; Plant response rating, Rice [9, 17]: 20; Plant response rating, Rice [9, 16]: 20; Plant response rating, Sedge, Umbrella [10, 17]: 0; Plant response rating, Sedge, Umbrella [10, 16]: 0; Plant response rating, Ducksalad [11, 17]: 0; Plant response rating, Ducksalad [11, 16]: 0; Plant response rating, Barnyardgrass [12, 17]: 0; Plant response rating, Barnyardgrass [12, 16]: 0
Cc1cc[n+]([O-])c([S+]([O-])Cc2c(C(F)(F)F)nn(C)c2OCC(F)F)c1 (centres unmarked) [Compound 86] | 70 | 90 | 70 | 100 | 50 | 90 | 70 | 100 | 80 | 90 | 90 | 100 | 60 | 90 | 50 | 90 | 60 | 90 | 90 | 100 | Plant response rating, Velvetleaf ([6]; Postemergence, 125 g ai/ha): 50; Velvetleaf plant response rating [6, 13]: 70; Velvetleaf plant response rating [6, 14]: 10; Velvetleaf plant response rating [6, 18]: 80; Plant response rating, Wheat ([7]; Postemergence, 125 g ai/ha): 50; Wheat plant response rating [7, 13]: 70; Wheat plant response rating [7, 14]: 70; Wheat plant response rating [7, 18]: 90; Plant response rating, Corn ([8]; Postemergence, 125 g ai/ha): 0; Corn plant response rating [8, 13]: 80; Corn plant response rating [8, 14]: 20; Plant response rating, Corn ([8]; Preemergence, 500 g ai/ha): 50; Plant response rating, Rice [9, 17]: 0; Plant response rating, Rice [9, 16]: 0; Plant response rating, Sedge, Umbrella [10, 17]: 45; Plant response rating, Sedge, Umbrella [10, 16]: 95; Plant response rating, Ducksalad [11, 17]: 65; Plant response rating, Ducksalad [11, 16]: 100; Plant response rating, Barnyardgrass [12, 17]: 0; Plant response rating, Barnyardgrass [12, 16]: 0
O=S(=O)(Cc1c(C(F)(F)F)nn(CC(F)(F)F)c1Cl)c1ccc(Cl)c[n+]1[O-] [Compound 50] | 60 | 70 | 70 | 90 | 60 | 70 | 60 | 90 | 70 | 70 | 80 | 90 | 30 | 30 | 30 | 40 | 20 | 30 | 80 | 100 | Plant response rating, Velvetleaf ([6]; Postemergence, 125 g ai/ha): 0; Velvetleaf plant response rating [6, 13]: 0; Velvetleaf plant response rating [6, 14]: 0; Plant response rating, Velvetleaf ([6]; Preemergence, 500 g ai/ha): 0; Plant response rating, Wheat ([7]; Postemergence, 125 g ai/ha): 0; Wheat plant response rating [7, 13]: 0; Wheat plant response rating [7, 14]: 0; Plant response rating, Wheat ([7]; Preemergence, 500 g ai/ha): 0; Plant response rating, Corn ([8]; Postemergence, 125 g ai/ha): 0; Corn plant response rating [8, 13]: 0; Corn plant response rating [8, 14]: 0; Plant response rating, Corn ([8]; Preemergence, 500 g ai/ha): 0; Plant response rating, Rice [9, 15]: 0; Plant response rating, Rice [9, 16]: 30; Plant response rating, Sedge, Umbrella [10, 16]: 40; Plant response rating, Ducksalad [11, 15]: 0; Plant response rating, Ducksalad [11, 16]: 40; Plant response rating, Barnyardgrass [12, 15]: 0; Plant response rating, Barnyardgrass [12, 16]: 45

— patent US20100298141A1, “SUBSTITUTED PYRIDINE N-OXIDE HERBICIDES” (E. I. DU PONT DE NEMOURS AND COMPANY, priority 2007, published 2010)
